In brackets after ≈: the same amount, converted by molar mass. Like-named read-outs stand apart in the source and are kept apart here.
How the values were obtained:
Assay type in all cases: cell-based
[1] = system: Staphylococcus hominis DMS 20328; test: Minimum inhibitory concentration (MIC) in microtitre plates; settings: Table 7, 48 hours at 37° C., MIC = ≦20% growth compared to control; for MIC: Staphylococcus hominis, DMS20328, read-out: Minimum inhibitory concentration (MIC) S. hominis
Protocol: (§1) Determination of the Minimum Inhibitory Concentration (MIC Value) in Microtitre Plates
(§2) Casein-soybean flour-peptone broth for preparation of pre-cultures of test bacteria and yeast.
(§3) Mycological slant agar for the pre-culture of moulds
(§4) Examples of Test Organisms:
(§5) The test substances are pre-dissolved in dimethyl sulfoxide (DMSO) and tested in a dilution series of 1:2.
(§6) Bacteria and yeast are cultured overnight in CASO broth, the mould is cultured overnight on mycological slant agar, and washed off using 10 ml of 0.85% sodium chloride solution (+0.1% Triton X-100).
(§7) All the test organisms are adjusted to an organism count of 1–5×10^6 CFU/ml using 0.85% sodium chloride solution.
(§8) The test substances are pre-pipetted into microtitre plates in amounts of 8 μl per well.
(§9) Pre-diluted organism suspensions are diluted 1:100 in CASO broth (bacteria and yeast) or Sabouraud 2% glucose broth (mould) and are added in amounts of 192 μl per well to the test substances.
(§10) The test batches are incubated for 48 hours at 37° C. (bacteria and yeast) or for 5 days at 28° C. (mould).
(§11) After incubation, the growth is determined on the basis of the turbidity of the test batches (optical density) at 620 nm in a microplate reader.
(§12) The minimum inhibitory concentration (MIC value) is the concentration of substance at which there is found (compared to the growth of the control) an appreciable inhibition of growth (≦20% growth) of the test organisms.
(§13) One microtitre plate is used for each test organism and substance concentration. All the substances are tested in duplicate.

[2] = system: Escherichia coli NCTC 8196; test: as above; settings: for MIC: Escherichia coli, NCTC8196
Protocol: as §1, §2, §3, §4, §5, §6, §7, §8, §9, §10, §11, §12, §13

[3] = system: Enterococcus hirae ATCC 10541; test: Minimum inhibitory concentration (MIC), further microorganisms; settings: Table 8, * = significant inhibition of growth, but not complete inhibition; for MIC: Enterococcus hirae, ATCC10541
Protocol: as §1, §2, §3, §5, §6, §7, §8, §9, §10, §11, §12, §13

[4] = system: Epidermophyton floccosum DSM 10709; test: as above; settings: Table 8, * = significant inhibition of growth, but not complete inhibition; for MIC: Epidermophyton floccosum, DSM10709
Protocol: as §1, §2, §3, §5, §6, §7, §8, §9, §10, §11, §12, §13

[5] = system: Trichophyton mentagrophytes ATCC 9533; test: as above; settings: Table 8, * = significant inhibition of growth, but not complete inhibition; for MIC: Trichophyton mentagrophytes, ATCC9533
Protocol: as §1, §2, §3, §5, §6, §7, §8, §9, §10, §11, §12, §13

[6] = system: Micrococcus luteus ATCC 9341; test: as above; settings: Table 8, * = significant inhibition of growth, but not complete inhibition; for MIC: Micrococcus luteus, ATCC9341
Protocol: as §1, §2, §3, §5, §6, §7, §8, §9, §10, §11, §12, §13

[7] = system: Staphylococcus aureus ATCC 9144; test: as above; settings: Table 8, * = significant inhibition of growth, but not complete inhibition; for MIC: Staphylococcus aureus, ATCC9144
Protocol: as §1, §2, §3, §5, §6, §7, §8, §9, §10, §11, §12, §13

[8] = system: S. epidermidis ATCC 12228; test: as above; settings: Table 8, * = significant inhibition of growth, but not complete inhibition; for MIC: Staphylococcus epidermidis, ATCC12228
Protocol: as §1, §2, §3, §5, §6, §7, §8, §9, §10, §11, §12, §13

[9] = Table 7, 48 hours at 37° C., MIC = ≦20% growth compared to control
[10] = Table 8, * = significant inhibition of growth, but not complete inhibition
[11] = Table 7, 48 hours at 37° C., MIC = ≦20% growth compared to control, read-out: Minimum inhibitory concentration (MIC) E. coli
[12] = Table 8, * = significant inhibition of growth, but not complete inhibition, read-out: Minimum inhibitory concentration (MIC) E. coli NCTC 8196

| Minimum inhibitory concentration (MIC) S. hominis [1] [µg/mL] | Minimum inhibitory concentration (MIC) E. coli [2, 9] [µg/mL] | Minimum inhibitory concentration (MIC) E. coli NCTC 8196 [2, 10] [µg/mL] | Minimum inhibitory concentration (MIC) Enterococcus hirae ATCC 10541 [3] [µg/mL] | Minimum inhibitory concentration (MIC) Epidermophyton floccosum DSM 10709 [4] | Minimum inhibitory concentration (MIC) Trichophyton mentagrophytes ATCC 9533 [5] | Minimum inhibitory concentration (MIC) Micrococcus luteus ATCC 9341 [6] [µg/mL] | Minimum inhibitory concentration (MIC) Staphylococcus aureus ATCC 9144 [7] [µg/mL] | Minimum inhibitory concentration (MIC) S. epidermidis ATCC 12228 [8] | MIC [1] [µg/mL] | MIC [2, 11] [µg/mL] | MIC [2, 12] [µg/mL] | MIC [3] [µg/mL] | MIC [4] [µg/mL] | MIC [5] [µg/mL] | MIC [6] [µg/mL] | MIC [7] [µg/mL] | MIC [8] [µg/mL] | SMILES |
| --- | --- | --- | --- | --- | --- | --- | --- | --- | --- | --- | --- | --- | --- | --- | --- | --- | --- | --- |
| 3.75 (≈ 10.6 µM) | >120 | >60 | 7.5 (≈ 21.2 µM) | >60 µg/mL | >60 µg/mL | 1.9 (≈ 5.36 µM) | 7.5 (≈ 21.2 µM) | 7.5 µg/mL (≈ 21.2 µM) | – | – | – | – | – | – | – | – | – | CCCCCCCCCCNc1nc(-c2ccccn2)nc(C)c1CC [compound 11] |
| 3.75 (≈ 11.5 µM) | >120 | >60 | 3.75 (≈ 11.5 µM) | *15 μg/mL | 15 µg/mL (≈ 45.9 µM) | <0.5 | 7.5 (≈ 23 µM) | 7.5 µg/mL (≈ 23 µM) | – | – | – | – | – | – | – | – | – | CCCCCCCCCCNc1cc(C)nc(-c2ccccn2)n1 [compound 23] |
| 3.75 (≈ 11.1 µM) | >120 | >60 | 7.5 (≈ 22.2 µM) | *60 μg/mL | >60 µg/mL | >0.5 | 15 (≈ 44.3 µM) | 7.5 µg/mL (≈ 22.2 µM) | – | – | – | – | – | – | – | – | – | CCCCCCCNc1cc(C(F)(F)F)nc(-c2ccccn2)n1 [compound 32] |
| 2.5 (≈ 7.09 µM) | >80 | >60 | 15 (≈ 42.6 µM) | >60 µg/mL | >60 µg/mL | <0.5 | 15 (≈ 42.6 µM) | 3.75 µg/mL (≈ 10.6 µM) | – | – | – | – | – | – | – | – | – | CCCCCCCCNc1cc(C(F)(F)F)nc(-c2ccccn2)n1 [compound 33] |
| 3.75 (≈ 10.2 µM) | >120 | >60 | 60 (≈ 164 µM) | >60 µg/mL | >60 µg/mL | >0.5 | >60 | *60 μg/mL | – | – | – | – | – | – | – | – | – | CCCCCCCCCNc1cc(C(F)(F)F)nc(-c2ccccn2)n1 [compound 34] |
| – | – | – | – | – | – | – | – | – | 3.75 (≈ 9.86 µM) | > 120 | > 60 | 7.5 (≈ 19.7 µM) | > 60 | > 60 | < 0.5 | 7.5 (≈ 19.7 µM) | 7.5 (≈ 19.7 µM) | CCCCCCCCCCNc1cc(C(F)(F)F)nc(-c2ccccn2)n1 [compound 35] |
| – | – | – | – | – | – | – | – | – | > 120 | > 120 | > 30 | 30 (≈ 64.6 µM) | > 60 | > 60 | 1 (≈ 2.15 µM) | 15 (≈ 32.3 µM) | 7.5 (≈ 16.1 µM) | CCCCCCCCCCCCCCCCNc1cc(C(F)(F)F)nc(-c2ccccn2)n1 [compound 37] |
| 7.5 (≈ 18.9 µM) | 60 (≈ 151 µM) | >60 | 30 (≈ 75.5 µM) | >60 µg/mL | >60 µg/mL | 3.75 (≈ 9.43 µM) | 30 (≈ 75.5 µM) | *15 μg/mL | – | – | – | – | – | – | – | – | – | CC(C)c1cc(NCCCCCCCCCCCCN)nc(-c2ccccn2)n1 [compound 43] |
| – | – | – | – | – | – | – | – | – | 3.75 (≈ 12 µM) | > 120 | > 30 | 15 (≈ 48 µM) | 60 (≈ 192 µM) | > 60 | 1 (≈ 3.2 µM) | 15 (≈ 48 µM) | 15 (≈ 48 µM) | CCCCCCCNc1cc(C(C)C)nc(-c2ccccn2)n1 [compound 44] |
| 3.75 (≈ 11.5 µM) | >120 | >30 | 3.75 (≈ 11.5 µM) | >60 µg/mL | >60 µg/mL | 3.75 (≈ 11.5 µM) | 7.5 (≈ 23 µM) | 7.5 µg/mL (≈ 23 µM) | – | – | – | – | – | – | – | – | – | CCCCCCCCNc1cc(C(C)C)nc(-c2ccccn2)n1 [compound 45] |
| 3.75 (≈ 11 µM) | >120 | >60 | 30 (≈ 88.1 µM) | 60 µg/mL (≈ 176 µM) | >60 µg/mL | 3.75 (≈ 11 µM) | 30 (≈ 88.1 µM) | 30 µg/mL (≈ 88.1 µM) | – | – | – | – | – | – | – | – | – | CCCCCCCCCNc1cc(C(C)C)nc(-c2ccccn2)n1 [compound 46] |
| – | – | – | – | – | – | – | – | – | 5 (≈ 14.1 µM) | > 80 | > 60 | 3.75 (≈ 10.6 µM) | 60 (≈ 169 µM) | 60 (≈ 169 µM) | < 0.5 | 7.5 (≈ 21.2 µM) | 3.75 (≈ 10.6 µM) | CCCCCCCCCCNc1cc(C(C)C)nc(-c2ccccn2)n1 [compound 47] |
| 3.75 (≈ 11.5 µM) | >120 | >60 | 1.9 (≈ 5.82 µM) | *30 μg/mL | *30 μg/mL | <0.5 | 3.75 (≈ 11.5 µM) | 3.75 µg/mL (≈ 11.5 µM) | – | – | – | – | – | – | – | – | – | CCCCCCCNc1cc(C(C)(C)C)nc(-c2ccccn2)n1 [compound 56] |
| 3.75 (≈ 11 µM) | >120 | >60 | 1.0 (≈ 2.94 µM) | 60 µg/mL (≈ 176 µM) | *60 μg/mL | <0.5 | 1.9 (≈ 5.58 µM) | 1.9 µg/mL (≈ 5.58 µM) | – | – | – | – | – | – | – | – | – | CCCCCCCCNc1cc(C(C)(C)C)nc(-c2ccccn2)n1 [compound 57] |

Reference: patent US7015228B2, “4-amino-2-(2-pyridyl)pyrimidines as microbicidal active substances” (Ciba Specialty Chemicals Corporation, priority 2001, dated 2006)
